Data taken from ChEMBL document CHEMBL3826939, “Discovery of Piperazinylquinoline Derivatives as Novel Respiratory Syncytial Virus Fusion Inhibitors” (ACS Med Chem Lett, 2016).
Calls of active or inactive are those of the source. The rule behind the calls is not given here.

Experiments:
[1] = Antiviral activity against Respiratory syncytial virus long A infected in human Hep2 cells assessed as reduction in virus-induced cytopathic effect measured after 6 days by CCK8 assay; assay type: functional, cell-based, Respiratory syncytial virus type A; details: HEp-2, 144 h
[2] = Cytotoxicity against human Hep2 cells measured after 6 days by CCK8 assay; assay type: cell-based, HEp-2
[3] = Permeability of the compound by PAMPA assay; assay type: ADME; details: read-out: permeability
[4] = Oral availability in Wistar rat at […] by LC-MS/MS analysis; assay type: ADME, organism-based; details: in vivo
[5] = Intrinsic clearance in human liver microsomes; assay type: ADME; details: read-out: CLH
[6] = test system: Respiratory syncytial virus; test: Inhibition of Respiratory syncytial virus long A fusion protein expressed in human Flp-In T-REx-293 cells assessed as inhibition of cell-cell fusion at 0.1 to 100 nM measured after 3 days by microscopic analysis; assay type: cell-based
[7] = Intrinsic clearance in rat liver microsomes; assay type: ADME; details: read-out: CLH
[8] = Half life in Wistar rat at […], iv by LC-MS/MS analysis; assay type: ADME, organism-based; details: in vivo
[9] = Solubility of the compound by LYSA; assay type: physicochemical
[10] = test system: Respiratory syncytial virus; test: Antiviral activity against Respiratory syncytial virus long A infected in human Hep2 cells assessed as inhibition of viral replication measured after 3 days by plaque reduction assay; assay type: functional, organism-based; details: HEp-2, 72 h
[11] = Volume of distribution at steady state in Wistar rat at […], iv by LC-MS/MS analysis; assay type: ADME, organism-based; details: in vivo, read-out: Vdss
[12] = Clearance in Wistar rat at […], iv by LC-MS/MS analysis; assay type: ADME, organism-based; details: in vivo
[13] = test system: Respiratory syncytial virus; test: Inhibition of Respiratory syncytial virus long A fusion protein expressed in expressed in human Flp-In T-REx-293 cells assessed as inhibition of cell-cell fusion at 1 to 100 nM measured after 3 days by microscopic analysis; assay type: cell-based

| Structure (SMILES) | EC50 [1] | CC50 at 144 h [2] | also measured |
| --- | --- | --- | --- |
| Cc1ccc(CC(=O)N2CCN(c3cc(NCCN)c4ccccc4n3)CC2)cc1 | 0.142 µM | > 100 µM | – |
| CC(=O)N1CCN(c2cc(NCCN)c3ccccc3n2)CC1 | 0.317 µM | > 100 µM | – |
| NCCNc1cc(N2CCN(C(=O)Cc3cccc(C(F)(F)F)c3)CC2)nc2ccccc12 | 0.563 µM | > 100 µM | – |
| NCCNc1cc(N2CCN(C(=O)C3CCCCC3)CC2)nc2ccccc12 | 9.24 µM | > 100 µM | – |
| CCC(CC)(C(=O)N1CCN(c2cc(NCCN)c3ccccc3n2)CC1)c1ccccc1 | 0.624 µM | > 100 µM | – |
| NCCNc1cc(N2CCN(C(=O)C3(c4ccccc4)CC3)CC2)nc2ccccc12 | 0.017 µM | > 100 µM | – |
| NCCNc1cc(N2CCN(C(=O)c3ccccc3)CC2)nc2ccccc12 | 0.57 µM | > 100 µM | – |
| N#Cc1cccc(CC(=O)N2CCN(c3cc(NCCN)c4ccccc4n3)CC2)c1 | 0.225 µM | > 100 µM | – |
| NCCNc1cc(N2CCN(C(=O)Cc3ccc(Cl)c(Cl)c3)CC2)nc2ccccc12 | 0.22 µM | 6.68 µM | – |
| NCCNc1cc(N2CCN(C(=O)C3(c4ccccc4)CCCC3)CC2)nc2ccccc12 | 3.82 µM | > 100 µM | – |
| Cc1ccccc1CC(=O)N1CCN(c2cc(NCCN)c3ccccc3n2)CC1 | 0.029 µM | > 100 µM | – |
| NCCNc1cc(N2CCN(C(=O)CCc3ccccc3)CC2)nc2ccccc12 | 0.464 µM | > 100 µM | – |
| CN(C)CCNc1cc(N2CCN(C(=O)C(C)(C)c3ccccc3)CC2)nc2ccccc12 | 0.929 µM | 55.2 µM | – |
| NCCNc1cc(N2CCN(C(=O)Cc3ccccc3)CC2)nc2ccccc12 | 0.079 µM | > 100 µM | – |
| CS(=O)(=O)N1CCN(c2cc(NCCN)c3ccccc3n2)CC1 | 2.27 µM | > 100 µM | – |
| CC(C)(C(=O)N1CCN(c2cc(NCCO)c3ccccc3n2)CC1)c1ccccc1 | 0.322 µM | > 100 µM | – |
| NCCNc1cc(N2CCN(C(=O)C3(c4ccccc4)CCC3)CC2)nc2ccccc12 | 0.086 µM | > 100 µM | – |
| CC(C(=O)N1CCN(c2cc(NCCN)c3ccccc3n2)CC1)c1ccccc1 (stereo unspecified) | 0.091 µM | > 100 µM | – |
| NCCNc1cc(N2CCN(C(=O)Cc3ccc(Cl)cc3)CC2)nc2ccccc12 | 0.058 µM | > 100 µM | – |
| CCC(C(=O)N1CCN(c2cc(NCCN)c3ccccc3n2)CC1)c1ccccc1 (stereo unspecified) | 0.556 µM | > 100 µM | – |
| CC(C)(C(=O)N1CCN(c2cc(NCCN)c3c(Cl)cccc3n2)CC1)c1ccccc1 | 7.96 µM | 20.8 µM | – |
| CC(C)(C(=O)N1CCN(c2cc(NCCN)c3ccc(Cl)cc3n2)CC1)c1ccccc1 | 2.19 µM | 20.9 µM | – |
| NCCNc1cc(N2CCN(C(=O)Cc3cccc(Cl)c3)CC2)nc2ccccc12 | 0.066 µM | > 100 µM | – |

| Structure (SMILES) | EC50 [1] | CC50 at 144 h [2] | also measured |
| --- | --- | --- | --- |
| CC(C)(C(=O)N1CCN(c2cc(NCCN)c3cc(Cl)ccc3n2)CC1)c1ccccc1 | 0.099 µM | 20.8 µM | – |
| CC(C)C(=O)N1CCN(c2cc(NCCN)c3ccccc3n2)CC1 | 0.847 µM | > 100 µM | – |
| COc1cccc(CC(=O)N2CCN(c3cc(NCCN)c4ccccc4n3)CC2)c1 | 0.098 µM | > 100 µM | – |
| CC(C)(C(=O)N1CCN(c2cc(NCCN)c3ccccc3n2)CC1)c1ccccc1 | 0.028 µM | > 100 µM | Papp [3]: 7.4 nm/s; bioavailability [4]: 57%; CLint scaled [5]: 0.504 L/h/kg; inhibition [6]: Active; CLint scaled [7]: 0.996 L/h/kg; half-life [8]: 3 h; solubility [9]: > 0.4 mg/mL; EC50 [10]: < 0.1 µM; Vd [11]: 36.9 L/kg; clearance [12]: 13.3 L/h/kg |
| NCCNc1cc(N2CCN(C(=O)Cc3ccccc3F)CC2)nc2ccccc12 | 0.089 µM | > 100 µM | – |
| CC(C)CC(=O)N1CCN(c2cc(NCCN)c3ccccc3n2)CC1 | 1.88 µM | > 100 µM | – |
| NCCNc1cc(N2CCN(c3ccccc3Cl)CC2)nc2ccccc12 | 2.01 µM | 20.8 µM | – |
| NCCNc1cc(N2CCN(c3ccccc3)CC2)nc2ccccc12 | 0.865 µM | 20.8 µM | – |
| COc1ccccc1CC(=O)N1CCN(c2cc(NCCN)c3ccccc3n2)CC1 | 0.056 µM | > 100 µM | – |
| CCC(=O)N1CCN(c2cc(NCCN)c3ccccc3n2)CC1 | 3.09 µM | > 100 µM | – |
| CC(=O)NCCNc1cc(N2CCN(C(=O)C(C)(C)c3ccccc3)CC2)nc2ccccc12 | 15.6 µM | > 100 µM | – |
| NCCNc1cc(N2CCN(c3ccc(Cl)cc3)CC2)nc2ccccc12 | > 100 µM | 6.6 µM | – |
| NCCNc1cc(N2CCN(C(=O)Cc3cccc(F)c3)CC2)nc2ccccc12 | 0.08 µM | > 100 µM | – |
| NCCNc1cc(N2CCN(C(=O)Cc3ccc(F)cc3)CC2)nc2ccccc12 | 0.095 µM | > 100 µM | – |
| CNCCNc1cc(N2CCN(C(=O)C(C)(C)c3ccccc3)CC2)nc2ccccc12 | 0.033 µM | > 100 µM | Papp [3]: 13.7 nm/s; bioavailability [4]: 41%; CLint scaled [5]: 0.342 L/h/kg; CLint scaled [7]: 1.08 L/h/kg; half-life [8]: 7.3 h; solubility [9]: > 0.4 mg/mL; inhibition [13]: Active; Vd [11]: 67.9 L/kg; clearance [12]: 8.56 L/h/kg |
| NCCNc1cc(N2CCN(C(=O)Cc3ccccc3Cl)CC2)nc2ccccc12 | 0.077 µM | > 100 µM | – |
| COc1ccc(CC(=O)N2CCN(c3cc(NCCN)c4ccccc4n3)CC2)cc1 | 0.679 µM | > 100 µM | – |
| NCCNc1cc(N2CCN(c3cccc(Cl)c3)CC2)nc2ccccc12 | 0.977 µM | 6.4 µM | – |
| NCCNc1cc(N2CCN(C(=O)Cc3ccc(F)c(F)c3)CC2)nc2ccccc12 | 0.255 µM | > 100 µM | – |
| NCC(O)CNc1cc(N2CCC(c3ccccc3)CC2)nc2ccccc12 (stereo unspecified) | 0.759 µM | 20.8 µM | – |
| Cc1cccc(CC(=O)N2CCN(c3cc(NCCN)c4ccccc4n3)CC2)c1 | 0.059 µM | > 100 µM | – |
| NCCNc1cc(N2CCN(C(=O)Cc3cc(F)cc(F)c3)CC2)nc2ccccc12 | 0.264 µM | > 100 µM | – |
| NCCNc1cc(N2CCN(S(=O)(=O)c3ccccc3)CC2)nc2ccccc12 | 1.17 µM | 20.5 µM | – |
